Laboratory results published in patent publication EP0643699B1, “6-(2-HYDROXYETHYLAMINOALKYL)-5,11-DIOXO-5,6-DIHYDRO-11H- INDENO[1,2-C]ISOQUINOLINES AND THEIR USE AS ANTINEOPLASTIC AGENTS” (priority 1991, dated 1993).
Marks after values point to notes of the source that are not given here.

Tests used:
L1210/MX = test: Cytotoxicity: incorporation of [14C]amino-acid mixture, variant resistant to mitoxantron; format: cell-based; conditions: Mus musculus; Tumor L1210/MX; Precursor [U-14C]Amino-acid mixture
Source text: The antineoplastic activity of the compounds of the invention has been investigated testing the compounds of the chemical group "in vivo" against experimental rodent tumors such as the solid form of Ehrlich tumour (STE, originally mammary adenocarcinoma), tumor HK (also transplantable originally mammary adenocarcinoma), Krebs' ascites tumour (Kr2), S37 ascites sarcoma, Nemeth-Keller lymphoma (NK), all maintained in mice H, Gardner lymphosarcoma (LsG, maintained in mice C3H), P388 and/or L1210 leukemia (maintained in DBA2 mice), B16 metastasizing melanocarcinoma (maintained in C57B1/6 mice) and Yoshida ascites reticulosarcoma (Y, maintained in Wistar rats) in experiments according to Jelinek, V. [Neoplasma 12, 469 (1965); ibid 7, 146 (1960)] and in "in vitro" experiments using radioactive precursors of nucleic acids and proteins according to Miko, M. et al. [Cancer Res 39, 4242 (1979); Neoplasma 26, 449 (1979); ibid 16, 161 (1969)] with minor modifications [Mattern, J.: Studies on the Drug Sensitivity of Short Term Cultured Tumour Cell Suspensions. In "Human Tumours in Short Term Culture" (Dendy, P.P. ed.), p.301, Academic Press 1976]. The Cox's proportional-hazards model was used for survival evaluation and optimal dose calculation according to Carter, V.H. et al. [cf Cancer Res. 42, 2963 (1982)]. […]

Yoshida reticulosarcoma = test: Survival of rats bearing Yoshida ascites reticulosarcoma; format: in vivo, Wistar rats; conditions: T/C
Source text: (§1) The antineoplastic activity of the compounds of the invention has been investigated testing the compounds of the chemical group "in vivo" against experimental rodent tumors such as the solid form of Ehrlich tumour (STE, originally mammary adenocarcinoma), tumor HK (also transplantable originally mammary adenocarcinoma), Krebs' ascites tumour (Kr2), S37 ascites sarcoma, Nemeth-Keller lymphoma (NK), all maintained in mice H, Gardner lymphosarcoma (LsG, maintained in mice C3H), P388 and/or L1210 leukemia (maintained in DBA2 mice), B16 metastasizing melanocarcinoma (maintained in C57B1/6 mice) and Yoshida ascites reticulosarcoma (Y, maintained in Wistar rats) in experiments according to Jelinek, V. [Neoplasma 12, 469 (1965); ibid 7, 146 (1960)] and in "in vitro" experiments using radioactive precursors of nucleic acids and proteins according to Miko, M. et al. [Cancer Res 39, 4242 (1979); Neoplasma 26, 449 (1979); ibid 16, 161 (1969)] with minor modifications [Mattern, J.: Studies on the Drug Sensitivity of Short Term Cultured Tumour Cell Suspensions. In "Human Tumours in Short Term Culture" (Dendy, P.P. ed.), p.301, Academic Press 1976]. The Cox's proportional-hazards model was used for survival evaluation and optimal dose calculation according to Carter, V.H. et al. [cf Cancer Res. 42, 2963 (1982)].
Seventy infantile Vistar female rats weighing 63.0-64.8 g were divided into seven groups: one control group and six experimental groups of 10 animal each. A lethal dose of the Yoshida reticulosarcoma ascitic fluid was implanted intraperitoneally to all the animals. The animals of test groups were treated using the compound suspended in water. The suspension contained the substance in such a concentration that dose 0.6, 0.4 and/or 0.2 ml of the suspension was equal to dose 200, 100 and/or 50 mg/kg p.o., or 40, 20 and/or 10 mg/kg s.c., respectively. Doses of the drug were administered to the experimental animals once a day, for five consecutive days, starting on the first day after tumour transplantation. In all animals survival was followed. It was observed that the treated animals survived longer than untreated control animals. […] The results of the experiment are summarized in the following table and shown in the graph on the Fig. 1.

Sa37 sarcoma = test: Antitumour activity in S37 ascites sarcoma bearing mice (tumour weight, total ascitocrit, survival); format: in vivo, mice H
Source text: as §1
Eighty female mice H weighing approximately 20 g were divided into four groups: one control group and three experimental groups of 20 animal each. A lethal dose of the Sa37 sarcoma ascitic fluid was implanted intraperitoneally to all the animals. The animals of test groups were treated using the compound suspended in water. The suspension contained the substance in such a concentration that dose 0.6, 0.4 and/or 0.2ml of the suspension p.o. was equal to dose 240, 160 and/or 80 mg/kg p.o., respectively. The drug was administered to the experimental animals once, a day after tumour transplantation. On the tenth day after the tumour transplantation, half of the animals in each group were killed by ether anaesthesia, ascites were emptied after laparotomia and the tumour weight was assessed in all animals from the weight difference before and after laparotomia and ascites removing. In ascites fluid the volume of tumour cell fraction was determined. The remaining animals were left to monitor the time of death and survival time was followed. […] It was also observed that the treated animals survived longer than untreated control animals. […] The results of the experiment are summarized in the following table: Antitumour activity of 6-[2-(2-hydroxyethyl)aminoethyl]5,11-dioxo-5,6-dihydro-11H-indeno[1,2-c]isoquinoline (the substance I, X=2) in S37 sarcoma bearing mice.
In an analogous experiment carried out on the animals with implanted Sa37 sarcoma the substance I (X=2) was administered in seven daily doses, and the substance I (X=3) in four days. The results of the experiment are summarized in the following table: Antitumour activity of 6-[2-(2-hydroxyethyl)aminoethyl]5,11-dioxo-5,6-dihydro-11H-indeno[1,2-c]isoquinoline (the substance I, X=2) and 6-[3-(2-hydroxyethyl)aminopropyl]5,11-dioxo-5,6-dihydro-11H-indeno[1,2-c]isoquinoline (the substance I, X=3) in S37 bearing mice.
In an experiment carried out on the animals with implanted Sa37 sarcoma the substance I (X=0) was administered in eight daily doses (analogously as in example 6).

[1] = 10 mg/kg p.o., seven daily doses
[2] = 20 mg/kg p.o., seven daily doses
[3] = 30 mg/kg p.o., seven daily doses
[4] = 80 mg/kg p.o. once, a day after tumour transplantation, assessed on the tenth day
[5] = 160 mg/kg p.o. once, a day after tumour transplantation, assessed on the tenth day
[6] = 240 mg/kg p.o. once, a day after tumour transplantation, assessed on the tenth day

O=C1c2ccccc2-c2c1c1ccccc1c(=O)n2CCNCCO [I (X=2), 6-[2-(2-hydroxyethyl)aminoethyl]-5,11-dioxo-5,6-dihydro-11H-indeno[1,2-c]isoquinoline]
IC50 (L1210/MX): 119 µM
Period of survival (% of control) (Yoshida reticulosarcoma; p.o. 50 mg/kg once a day for five consecutive days): 132%
Period of survival (% of control) (Yoshida reticulosarcoma; p.o. 100 mg/kg once a day for five consecutive days): 230^b,^e) %
Period of survival (% of control) (Yoshida reticulosarcoma; p.o. 200 mg/kg once a day for five consecutive days): 219^b,^d) %
Period of survival (% of control) (Yoshida reticulosarcoma; s.c. 10 mg/kg once a day for five consecutive days): 203 ^b) %
Period of survival (% of control) (Yoshida reticulosarcoma; s.c. 20 mg/kg once a day for five consecutive days): 139^a) %
Period of survival (% of control) (Yoshida reticulosarcoma; s.c. 40 mg/kg once a day for five consecutive days): 86%
Survival time (T/C, %) (Sa37 sarcoma; [1]): 129%
Total ascitocrit (T/C, %) (Sa37 sarcoma; [1]): 73^b) %
Tumour weight (T/C, %) (Sa37 sarcoma; [1]): 66^b) %
Survival time (T/C, %) (Sa37 sarcoma; [2]): 129^a) %
Total ascitocrit (T/C, %) (Sa37 sarcoma; [2]): 73^a) %
Tumour weight (T/C, %) (Sa37 sarcoma; [2]): 64^b) %
Survival time (T/C, %) (Sa37 sarcoma; [3]): 86%
Total ascitocrit (T/C, %) (Sa37 sarcoma; [3]): 40^b) %
Tumour weight (T/C, %) (Sa37 sarcoma; [3]): 32^b) %
Survival time (T/C, %) (Sa37 sarcoma; 80 mg/kg p.o. once, a day after tumour transplantation): 107%
Total ascitocrit (T/C, %) (Sa37 sarcoma; [4]): 64^c) %
Tumour weight (T/C, %) (Sa37 sarcoma; [4]): 61^c) %
Survival time (T/C, %) (Sa37 sarcoma; 160 mg/kg p.o. once, a day after tumour transplantation): 111%
Total ascitocrit (T/C, %) (Sa37 sarcoma; [5]): 65^c) %
Tumour weight (T/C, %) (Sa37 sarcoma; [5]): 59^c) %
Survival time (T/C, %) (Sa37 sarcoma; 240 mg/kg p.o. once, a day after tumour transplantation): 119^b) %
Total ascitocrit (T/C, %) (Sa37 sarcoma; [6]): 47^c) %
Tumour weight (T/C, %) (Sa37 sarcoma; [6]): 42^c) %
